This note sets out measurements from ChEMBL document CHEMBL1141432, “Mono- and Di-sesquiterpenoids from Chloranthus spicatus” (2007).

In brackets after ≈: the same amount, converted by molar mass. Where only a bound is given, the exact number is not on record here.

One test deals with Candida albicans. The test is described as follows: Antifungal activity against Candida albicans by NCCLS M27-A method. The format is functional.
Another test deals with Candida parapsilosis. As to the kind of experiment: Antifungal activity against Candida parapsilosis by NCCLS M27-A method. The settings on record: Lodderomyces parapsilosis. It is filed as functional.

The MIC is the smallest concentration in the dilution series that meets the test's criterion for growth inhibition. Read a high MIC as weaker potency. As for `CC1=C2C3=C4[C@@](C)(C(=O)[C@@]2(O)OC1=O)[C@@H]1C[C@@H]1[C@@]4(O)C[C@@H]1[C@]32OC(=O)C3=C2C[C@H]2[C@](O)(COC(=O)/C=C(\C)COC(=O)CCC(=O)OC3)[C@H]3C[C@@H]3[C@]12C` [CHLORAHOLOLIDE B], the MIC in the test on Candida albicans and against Candida parapsilosis was > 0.157 µM in each case.

As for `CC1=C2C3=C4[C@](C)([C@@H]5C[C@@H]5[C@@]4(O)C[C@@H]4[C@]35OC(=O)C3=C5C[C@H]5[C@](O)(COC(=O)/C=C(\C)COC(=O)CCC(=O)OC3)[C@H]3C[C@@H]3[C@]45C)[C@@H](O)[C@@]2(O)OC1=O` [CHLORAMULTILIDE B], the MIC against Candida albicans and with Candida parapsilosis was 0.068 µM (≈ 0.05 µg/mL) in each case.

For the compound `CC1=C2C3=C4[C@](C)([C@@H]5C[C@@H]5[C@@]4(O)C[C@@H]4[C@]35OC(=O)C3=C5C[C@H]5[C@](O)(COC(=O)/C(C)=C/COC(=O)CCC(=O)OC3)[C@H]3C[C@H]3[C@]45C)[C@@H](O)[C@@]2(O)OC1=O` [CHLORAMULTILIDE C], the MIC in the test with Candida albicans and in the test on Candida parapsilosis was > 0.157 µM in each case.

For `C/C=C(\C)C(=O)OC[C@]1(O)[C@H]2C[C@H]2[C@]2(C)[C@@H]3C[C@@]4(O)C5=C(C6=C(C)C(=O)O[C@]6(O)[C@H](O)[C@@]5(C)[C@@H]5C[C@@H]54)[C@@]34OC(=O)C(CO)=C4C[C@@H]12` [CHLORAMULTILIDE D], the minimal inhibitory concentration (MIC) against Candida albicans and in the test on Candida parapsilosis was > 0.157 µM in each case.
